Here are results for 3 compounds from ChEMBL document CHEMBL1649466, “High-throughput screening identifies novel inhibitors of the acetyltransferase activity of Escherichia coli GlmU” (Antimicrob Agents Chemother, 2009).

The target in test [1] is Bifunctional protein GlmU (Escherichia coli (strain K12)) (UniProt P0ACC7). Put plainly: Competitive inhibition of Acetyltransferase activity of Escherichia coli BL21(DE3) GlmU in presence of AcCoA.
The target is the same in test [2]. Briefly: Uncompetitive inhibition of Acetyltransferase activity of Escherichia coli BL21(DE3) GlmU in presence of GlcN-1P.
Test [3] shares this target. Put plainly: Uncompetitive inhibition of Acetyltransferase activity of Escherichia coli BL21(DE3) GlmU in presence of AcCoA.

Bifunctional protein GlmU (Escherichia coli (strain K12)), sequence (P0ACC7 whole entry, looked up): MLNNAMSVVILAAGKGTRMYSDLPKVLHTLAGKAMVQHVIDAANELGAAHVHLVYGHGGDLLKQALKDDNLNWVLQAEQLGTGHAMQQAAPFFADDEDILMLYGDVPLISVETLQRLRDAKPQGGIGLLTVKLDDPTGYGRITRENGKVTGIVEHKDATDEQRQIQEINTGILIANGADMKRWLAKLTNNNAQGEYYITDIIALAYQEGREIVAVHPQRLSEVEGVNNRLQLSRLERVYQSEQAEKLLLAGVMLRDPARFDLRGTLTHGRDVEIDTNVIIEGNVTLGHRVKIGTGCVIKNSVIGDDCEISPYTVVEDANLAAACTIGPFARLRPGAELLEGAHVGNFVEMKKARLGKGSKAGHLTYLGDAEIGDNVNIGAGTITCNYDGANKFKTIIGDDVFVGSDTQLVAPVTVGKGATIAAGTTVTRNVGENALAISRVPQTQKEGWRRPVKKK

For `Nc1ccc(Nc2ccc(N)cc2S(=O)(=O)O)cc1`, the Kic in test [1] was 17.2 nM. Moreover, the Kiuc in test [2] was found to be 189 nM.
With `O=C(CSc1nnc(SCC(=O)NCCSCc2ccco2)s1)NCCSCc1ccco1`, the Kic in test [1] was 22.8 nM. In addition, the Kiuc in test [3] came out at 101 nM.
Take `O=S(=O)(Nc1ccc(S(=O)(=O)c2ccc(-c3ccc(S(=O)(=O)c4ccc(NS(=O)(=O)c5ccc(Cl)cc5)c(Cl)c4)cc3)cc2)cc1Cl)c1ccc(Cl)cc1`: the Kic in test [1] worked out at 404 nM. Moreover, in test [2], the Kiuc was determined as 1.11 ×10³ nM.
